What is called IC50 is the concentration that gives 50% inhibition.

We go through 21 molecules from patent publication US8853230B2, “Inhibitors of JAK” (Portola Pharmaceuticals, Inc., priority 2009, dated 2014).

For one experiment, the target named is T1, TYK2 (Homo sapiens, UniProt P29597).
T1 construct: 5 μl of catalytic domain recombinant Kinase enzyme+Tyr peptide substrate (Invitrogen, Calif.); purchased Invitrogen
T1 sequence (P29597 897-1176 limits assumed): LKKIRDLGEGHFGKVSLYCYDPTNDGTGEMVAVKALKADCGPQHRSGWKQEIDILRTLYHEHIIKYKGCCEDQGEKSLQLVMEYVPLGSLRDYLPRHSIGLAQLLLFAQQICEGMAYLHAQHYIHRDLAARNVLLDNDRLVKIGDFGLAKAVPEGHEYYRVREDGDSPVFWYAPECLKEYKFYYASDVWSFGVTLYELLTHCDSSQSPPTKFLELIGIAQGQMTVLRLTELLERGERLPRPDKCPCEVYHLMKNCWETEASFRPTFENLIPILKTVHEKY
Nature of the experiment: Z'-LYTE kinase assay, TYK2 tyrosine phosphorylation activity. It counts as biochemical. Put shortly:
(§1)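 Compounds are serially diluted 1:10 in DMSO and tested in duplicate at 1% final DMSO. Each recombinant catalytic domain phosphorylates the Tyr6 FRET peptide with ATP for 1 h at room temperature, then a site-specific protease cleaves unphosphorylated peptide over 1 h before coumarin/fluorescein emission is read.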

Another experiment deals with T2, JAK3 (Homo sapiens, UniProt P52333).
T2 construct: 5 μl of catalytic domain recombinant Kinase enzyme+Tyr peptide substrate (Invitrogen, Calif.); purchased Invitrogen
The experiment is described as follows: Z'-LYTE kinase assay, JAK3 tyrosine phosphorylation activity. It counts as biochemical. The gist of the method:
as §1

Experiment [1] relates to IL4-induced phospho STAT6 formation in Ramos B lymphocytes. Nature of the experiment: Inhibition of IL4-induced phospho STAT6 formation in Ramos B lymphocytes (flow cytometry). Type of experiment: cell-based, human. The source says: Similar types of assays can be used to assess JAK inhibitory activity and to determine the degree of selectivity of the particular compound as compared to syk. One means of assaying for such inhibition is detection of the effect of the compounds of the present invention on the upregulation of downstream gene products. In the Ramos/IL4 assay, B-cells are stimulated with the cytokine Interleukin-4 (IL-4) leading to the activation of the JAK/Stat pathway through phosphorylation of the JAK family kinases, JAK1 and JAK3, which in turn phosphorylate and activate the transcription factor Stat-6. […] To study the effect of inhibitors (e.g., the 2,4-substituted pyrimindinediamine compounds described herein) on the JAK1 and JAK3, human Ramos B-cells are stimulated with human IL-4. 10′ post-stimulation, cells are subjected to intracellular flow cytometry to measure the extent of STAT-6 phosphorylation. 20 to 24 hours post-stimulation, cells are stained for upregulation of CD23 and analyzed using flow cytometry.
Inhibition of IL4-induced phospho STAT6 formation was measured by pre-incubating 0.5 million Ramos B lymphocytes (ATCC) with 5 μl compound or DMSO vehicle for 1 hour at 37° C./5% CO2. Cells were activated by addition of 1 ng/ml [f]IL4 (R & D Research Systems) for 10 min at 37° C./5% CO2 and then fixed by addition of 1.6% [f]PFA (Electron Microscopy Services). Following a PBS wash step and permaeabilization with 100% methanol, cells were incubated with ALEXA-conjugated anti-phosphoSTAT6 (Y641) antibody (BD 612600). The extent of cell associated-fluorescence was determined by flow cytomentry and data expressed as mean fluorescent intensity. The extent of inhibition of the IL4-induced signal was then calculated.
In general terms: A flow cytometer gives signals particle by particle.

The next experiment addresses T3, JAK2 (Homo sapiens, UniProt O60674).
T3 construct: 5 μl of catalytic domain recombinant Kinase enzyme+Tyr peptide substrate (Invitrogen, Calif.); purchased Invitrogen
Nature of the experiment: Z'-LYTE kinase assay, JAK2 tyrosine phosphorylation activity. It counts as biochemical. The gist of the method: as §1

The target in a further experiment is T4, JAK1 (Homo sapiens, UniProt P23458).
T4 construct: 5 μl of catalytic domain recombinant Kinase enzyme+Tyr peptide substrate (Invitrogen, Calif.); purchased Invitrogen
Nature of the experiment: Z'-LYTE kinase assay, JAK1 tyrosine phosphorylation activity. It counts as biochemical. The conditions noted are these: read-out: JAK 1 IC50. Put shortly:
as §1

T2 sequence (P52333 822-1111 limits assumed): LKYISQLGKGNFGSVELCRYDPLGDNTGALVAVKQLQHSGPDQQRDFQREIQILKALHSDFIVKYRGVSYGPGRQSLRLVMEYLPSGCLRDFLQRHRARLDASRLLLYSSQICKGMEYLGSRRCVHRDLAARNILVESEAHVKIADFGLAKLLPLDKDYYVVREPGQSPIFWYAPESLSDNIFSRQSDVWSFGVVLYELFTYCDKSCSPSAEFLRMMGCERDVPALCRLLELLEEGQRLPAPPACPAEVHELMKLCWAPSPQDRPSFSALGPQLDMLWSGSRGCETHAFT
T3 sequence (O60674 849-1124 limits assumed): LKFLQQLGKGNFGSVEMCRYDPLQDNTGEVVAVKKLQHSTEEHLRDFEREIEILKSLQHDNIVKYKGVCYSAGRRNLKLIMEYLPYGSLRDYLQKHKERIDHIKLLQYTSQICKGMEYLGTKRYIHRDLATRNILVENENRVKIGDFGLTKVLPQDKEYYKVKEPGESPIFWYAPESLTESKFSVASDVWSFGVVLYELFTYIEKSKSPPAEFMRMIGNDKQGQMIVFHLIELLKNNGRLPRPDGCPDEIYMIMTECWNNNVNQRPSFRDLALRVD
T4 sequence (P23458 875-1153 limits assumed): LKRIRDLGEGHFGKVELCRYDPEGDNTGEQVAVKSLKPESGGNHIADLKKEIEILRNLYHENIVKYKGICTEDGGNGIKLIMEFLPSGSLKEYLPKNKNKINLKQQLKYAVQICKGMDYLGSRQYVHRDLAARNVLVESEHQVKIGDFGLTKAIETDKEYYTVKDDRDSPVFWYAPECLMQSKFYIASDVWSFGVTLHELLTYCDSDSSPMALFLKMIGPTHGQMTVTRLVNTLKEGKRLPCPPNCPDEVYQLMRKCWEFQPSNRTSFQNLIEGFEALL

“2-(3-(azetidine-1-carboxamido)phenylamino)-4-(benzylamino)pyrimidine-5-carboxamide [Example 219]”: the IC50 against TYK2 was in the range of 10 to 100 nM; against JAK3 it was 1 to 10 nM; against JAK2, 10 to 100 nM; on JAK1, 10 to 100 nM. Also, in experiment [1] (200 nM compound), the “% Inhibition of IL-4 Induced STAT6 Phosphorylation 200 nM” value turned out to be 19.0%. Also, in experiment [1] (1 μM compound), the “% Inhibition of IL-4 Induced STAT6 Phosphorylation 1 μM” value is reported as 65.3%.

On to `CC(=O)Nc1cc(Cl)cc(Nc2ncc(C(N)=O)c(NCc3cccc(F)c3)n2)c1` [Example 261, 2-(3-acetamido-5-chlorophenylamino)-4-(3-fluorobenzylamino)pyrimidine-5-carboxamide], for which the concentration for half-maximal inhibition (IC50) was 10 to 100 nM against TYK2, 10 to 100 nM against JAK3, 10 to 100 nM against JAK2 and greater than 1000 nM at JAK1.

As for `CC(=O)Nc1cccc(Nc2ncc(C(N)=O)c(NCC3CCC3)n2)c1` [Example 262, 2-(3-acetamidophenylamino)-4-(cyclobutylmethylamino)pyrimidine-5-carboxamide], the IC50 on TYK2 is 1 to 10 nM; at JAK3, 1 to 10 nM; against JAK2, 10 to 100 nM; at JAK1, 10 to 100 nM.

In the case of `NC(=O)c1cnc(Nc2ccc(Cl)c(NC(=O)N3CCCC3)c2)nc1NCC1CCC1` [Example 263, 2-(4-chloro-3-(pyrrolidine-1-carboxamido)phenylamino)-4-(cyclobutylmethylamino)pyrimidine-5-carboxamide], the IC50 against TYK2, against JAK3, at JAK2 and at JAK1 was greater than 1000 nM throughout.

For `CC(=O)Nc1cccc(Nc2cc(N[C@H](C)c3ccccc3)c(C(N)=O)cn2)c1` [Example 322, (R)-6-(3-acetamidophenylamino)-4-(1-phenylethylamino)nicotinamide], the half-inhibitory concentration (IC50) against TYK2 lay in the range of 100 to 1000 nM; on JAK3, 10 to 100 nM; against JAK2, 100 to 1000 nM; on JAK1, 100 to 1000 nM.

For `CC(=O)Nc1cccc(Nc2cc(NCC(C)C)c(C(N)=O)cn2)c1` [Example 323, 6-(3-acetamidophenylamino)-4-(isobutylamino)nicotinamide], the IC50 against TYK2 was in the range of 10 to 100 nM; against JAK3, 10 to 100 nM; at JAK2, 100 to 1000 nM; on JAK1, 100 to 1000 nM.

As to `CC(C)CNc1cc(Nc2cccc(NC(=O)N3CCCC3)c2)ncc1C(N)=O` [Example 324, 4-(isobutylamino)-6-(3-(pyrrolidine-1-carboxamido)phenylamino)nicotinamide], the half-maximal inhibitory concentration (IC50) was in the range of 100 to 1000 nM at TYK2, 10 to 100 nM against JAK3, 100 to 1000 nM against JAK2 and 100 to 1000 nM at JAK1.

In the case of `C[C@@H](Nc1cc(Nc2cccc(NC(=O)N3CCCC3)c2)ncc1C(N)=O)c1ccccc1` [Example 325, (R)-4-(1-phenylethylamino)-6-(3-(pyrrolidine-1-carboxamido)phenylamino)nicotinamide], the concentration for half-maximal inhibition (IC50) against TYK2 lay within 100 to 1000 nM; against JAK3, 1 to 10 nM; against JAK2 it was 100 to 1000 nM; at JAK1 it was 100 to 1000 nM.

For `NC(=O)c1cnc(Nc2cccc(NC(=O)N3CCCC3)c2)cc1NCc1ccccc1` [Example 326, 4-(benzylamino)-6-(3-(pyrrolidine-1-carboxamido)phenylamino)nicotinamide], the 50% inhibitory concentration (IC50) against TYK2 lay in the range of 10 to 100 nM; on JAK3, 1 to 10 nM; on JAK2 it was 100 to 1000 nM; at JAK1, 100 to 1000 nM.

`CC(=O)Nc1cccc(Nc2cc(NCCC(C)C)c(C(N)=O)cn2)c1` [Example 327, 6-(3-acetamidophenylamino)-4-(isopentylamino)nicotinamide]: the 50% inhibitory concentration (IC50) against TYK2 lay in the range of 10 to 100 nM; at JAK3, 10 to 100 nM; on JAK2, 100 to 1000 nM; at JAK1, 100 to 1000 nM.

Consider `CC(C)CCNc1cc(Nc2cccc(NC(=O)N3CCCC3)c2)ncc1C(N)=O` [Example 328, 4-(isopentylamino)-6-(3-(pyrrolidine-1-carboxamido)phenylamino)nicotinamide], for which the half-inhibitory concentration (IC50) on TYK2 lay in the range of 10 to 100 nM; at JAK3, 10 to 100 nM; against JAK2, 100 to 1000 nM; at JAK1, 100 to 1000 nM.

Consider `CC(=O)Nc1cccc(Nc2cc(NCC3CC3)c(C(N)=O)cn2)c1` [Example 329, 6-(3-acetamidophenylamino)-4-(cyclopropylmethylamino)nicotinamide], for which the IC50 was 100 to 1000 nM against TYK2, 100 to 1000 nM at JAK3, 100 to 1000 nM against JAK2 and greater than 1000 nM at JAK1.

On to `CC(=O)Nc1cccc(Nc2cc(NC3CCCC3)c(C(N)=O)cn2)c1` [Example 330, 6-(3-acetamidophenylamino)-4-(cyclopentylamino)nicotinamide], for which the IC50 lay in the range of 10 to 100 nM at TYK2, 100 to 1000 nM on JAK3, 100 to 1000 nM on JAK2 and 100 to 1000 nM on JAK1.

Consider `CC(=O)Nc1cccc(Nc2cc(NCC3CCC3)c(C(N)=O)cn2)c1` [Example 331, 6-(3-acetamidophenylamino)-4-(cyclobutylmethylamino)nicotinamide], for which the half-maximal inhibitory concentration (IC50) on TYK2 fell in the range of 10 to 100 nM; against JAK3, 10 to 100 nM; against JAK2 it was 100 to 1000 nM; on JAK1, 100 to 1000 nM.

On to `CC(=O)Nc1cccc(Nc2cc(NCc3ccc(F)cc3)c(C(N)=O)cn2)c1` [Example 332, 6-(3-acetamidophenylamino)-4-(4-fluorobenzylamino)nicotinamide], for which the IC50 at TYK2 is greater than 1000 nM; against JAK3, 100 to 1000 nM; against JAK2, 100 to 1000 nM; at JAK1 it was greater than 1000 nM.

Turning to `CC(=O)Nc1cccc(Nc2cc(NC3Cc4ccccc4C3)c(C(N)=O)cn2)c1` [Example 333, 6-(3-acetamidophenylamino)-4-(2,3-dihydro-1H-inden-2-ylamino)nicotinamide], the concentration for half-maximal inhibition (IC50) against TYK2 was 100 to 1000 nM; against JAK3, 100 to 1000 nM; at JAK2, greater than 1000 nM; at JAK1, greater than 1000 nM.

As for `CC(=O)Nc1cccc(Nc2cc(NCc3ccc4c(c3)OCO4)c(C(N)=O)cn2)c1` [Example 334, 6-(3-acetamidophenylamino)-4-(benzo[d][1,3]dioxol-5-ylmethylamino)nicotinamide], the concentration for half-maximal inhibition (IC50) was greater than 1000 nM against TYK2, 100 to 1000 nM against JAK3, greater than 1000 nM on JAK2 and greater than 1000 nM at JAK1.

Regarding `CC(=O)Nc1cccc(Nc2cc(N[C@H]3CCc4ccccc43)c(C(N)=O)cn2)c1` [Example 335, (S)-6-(3-acetamidophenylamino)-4-(2,3-dihydro-1H-inden-1-ylamino)nicotinamide], the 50% inhibitory concentration (IC50) on TYK2 was 10 to 100 nM; against JAK3 it was 10 to 100 nM; on JAK2, greater than 1000 nM; on JAK1, 100 to 1000 nM.

In the case of `CC(=O)Nc1cccc(Nc2cc(NCc3cccc(F)c3F)c(C(N)=O)cn2)c1` [Example 336, 6-(3-acetamidophenylamino)-4-(2,3-difluorobenzylamino)nicotinamide], the IC50 against TYK2 was 100 to 1000 nM; on JAK3 it was 1 to 10 nM; at JAK2 it was 100 to 1000 nM; at JAK1, 100 to 1000 nM.

Turning to `CC(=O)Nc1cccc(Nc2cc(NCc3cccc(Cl)c3)c(C(N)=O)cn2)c1` [Example 337, 6-(3-acetamidophenylamino)-4-(3-chlorobenzylamino)nicotinamide], the IC50 against TYK2 lay within 100 to 1000 nM; against JAK3, 10 to 100 nM; at JAK2 it was 100 to 1000 nM; on JAK1, 100 to 1000 nM.

Consider `CC(=O)Nc1cccc(Nc2cc(NCCc3ccccc3)c(C(N)=O)cn2)c1` [Example 338, 6-(3-acetamidophenylamino)-4-(phenethylamino)nicotinamide], for which the IC50 against TYK2 is 100 to 1000 nM; at JAK3 it was 100 to 1000 nM; on JAK2 it was greater than 1000 nM; at JAK1 it was greater than 1000 nM.
